One data set in a line: in vitro. As to conditions: mouse, plasma. It counts as in vitro ADME. An excerpt:
Fraction unbound in mouse plasma:^8

Data set [1] in a line: Mouse microsomal stability. The settings on record: mouse, microsomes; for Mouse microsome (% metabolized in 30 min): 0.5 h, 2 μM. Format: in vitro ADME. On the procedure:
4. Method for microsomal stability:
To determine microsomal turnover, test compounds were incubated (2 μM) with liver microsomes in the presence of NADPH, and loss of parent molecule was measured by LC-MS after 30 min.

Data set [2] in a line: Mouse pharmacokinetic studies (intravenous and oral). As to conditions: for AUC0–24: 24 h. Format: in vivo. The method, then: 5. Method for PK studies:
In Vivo Pharmacokinetic Studies. Compounds 1, 2 and 3 were administered intravenously at 1 mg/kg (1 ml/kg) in Dimethyl acetamide 25%v/v, ethanol 15%v/v, propylene glycol 10%v/v, 2 pyrrolidone 25%v/v, PW 25%v/v in fed animal, or orally at 10 mg/kg (10 ml/kg) in Hydroxyethylcellulose 1% w/v/polysorbate 80 0.25% v/v/Antifoam 1510-US 0.05% v/v/PW (probe sonicate), in fasted animals, respectively. Additional study was conducted for compound 2 wherein the animals were dosed 1-aminobenzotriazole (100 mpk) intraperitoneally one hour prior to dosing compound 2 either intravenously (fed animals) at 1 mg/kg or orally (fasted animals) at 10 mg/kg. Three animals were dosed per study arm.
Serial blood samples were collected at 0.08, 0.25, 0.75, 2, 4, 8, 24 for intravenous and 0.25, 0.5, 1, 2, 4, 8, 24 for oral administration. The blood was collected via a tail snip directly into a 20-μL EDTA-coated capillary and immediately spotted onto a Whatman DMPK-C dried blood sample (DBS) card and analysed using LC-MS/MS, as described previously.^7 Noncompartmental pharmacokinetic parameters were calculated using Watson version 7.4 (Thermo Scientific, Waltham, MA).

Data set [3] concerns M. tuberculosis H37Rv expressing DsRed. Briefly: microbe, parasite or virus in culture. Format: cell-based. The settings on record: Mycobacterium tuberculosis, average ± standard deviation for at least 2 runs, read-out: 7H9-Ty-BT MIC.
The subject of a further data set is Vero cells (ATCC CCL81). Briefly: Cytotoxicity in Vero cells (CellTiter-Glo). It counts as cell-based. The settings on record: Chlorocebus sabaeus, 48 h, 2 days. On the procedure: Vero cells (ATCC® CCL81) were grown in DMEM, high glucose, GlutaMAX™ (Invitrogen), 10% FBS, 50 units/mL penicillin, and 50 µg/mL streptomycin, seeded as 1200 cells per well in 384-well plates and incubated for 24 h at 37 °C with 5% CO2. Compounds were added as a 3-fold serial dilution series and cells incubated for 2 days at 37 °C with 5% CO2. Viability was measured using CellTiter-Glo® Reagent (Promega).
(In ATP-based viability assays light output follows the ATP content of the culture.)

In data set [4] the test system is M. tuberculosis H37Rv expressing DsRed. Briefly: microbe, parasite or virus in culture. It counts as cell-based. The settings on record: Mycobacterium tuberculosis, read-out: 7H9-Tw-OADC MIC.

Structures are written as SMILES. Converted amounts (≈) assume the structure as drawn. Like-named read-outs stand apart in the source and are kept apart here.

15 compounds from publication PMC5946847, “Synthesis and biological evaluation of aryl-oxadiazoles as inhibitors of Mycobacterium tuberculosis” (Bioorganic & Medicinal Chemistry Letters, 2018) can be followed below.

The compound `c1csc(-c2nnc(Cc3cccc4ccccc34)o2)c1` [Compound 1] registered a fraction unbound at 4.5 h, 1 µM in the data set “in vitro” of 0.011. In data set [1], the CLint scaled at 2 μM was determined as 3310 mL/min/kg and the “Mouse microsome (% metabolized in 30 min)” value was 99%. The solubility in “physchem” (pH 7.4) is below 1 µg/mL. For the same compound, in data set [2] (in vivo, iv, 1 mg/kg), the “AUC,u0–24” value is reported as 32 ng·h/mL, the “CL,u” value was 1727 mL/min/kg, the Cl is 19 mL/min/kg and the Vdss is reported as 0.9 L/kg. The same compound yielded an AUC(0-t) in data set [2] (in vivo, iv, 1 mg/kg, AUC0–24) of 2900 ng·h/mL. In data set [2] (in vivo, po, 10 mg/kg), the Cmax stood at 19 ng/mL, the “Cmax,u” value was determined as 0.2 ng/mL and the Tmax was 2.75 h. In data set [2] (in vivo, po, 10 mg/kg, AUC0–24), this compound had an AUC(0-t) at 24 h of 31 ng·h/mL. The compound further had a t1/2 in data set [2] (intravenous 1 mg/kg) of 1.2 h.

For `CN(Cc1nnc(-c2ccco2)o1)Cc1c(F)cccc1Cl.O=C(O)/C=C\C(=O)O` [Compound 2 maleate salt], the “Aqueous solubility at pH 6” value (pH 6) amounted to 0.687 mg/mL. Also, where the note is “pH 7.4”, the “Aqueous solubility at pH 7.4” value is on record as 0.717 mg/mL.

In turn, `CN(Cc1nnc(-c2ccco2)o1)Cc1c(F)cccc1Cl` [Compound 2] had a fraction unbound at 4.5 h, 1 µM in “in vitro” of 0.123. In data set [1], the CLint scaled at 2 μM was found to be 1350 mL/min/kg and the “Mouse microsome (% metabolized in 30 min)” value is listed as 99%. In “physchem” (pH 6), this compound yielded a solubility of 49 µg/mL (≈ 152 µM). The amount in solution in “physchem” (pH 7.4) (solubility) came to 77 µg/mL (≈ 239 µM). In data set [2] (in vivo, iv, 1 mg/kg), the “AUC,u0–24” value stood at 37 ng·h/mL, the “CL,u” value stood at 455 mL/min/kg, the Cl is 56 mL/min/kg and the Vdss is on record as 1.1 L/kg. Further, the “AUC0–24” value in data set [2] (in vivo, iv, 1 mg/kg) is reported as 300 ng·h/mL. Further, in data set [2] (in vivo, po, 10 mg/kg), the Cmax worked out at 31 ng/mL, the “Cmax,u” value was 3.8 ng/mL, the “Increase of oral exposure when co-administered with ABT” value is above 10 fold and the Tmax was determined as 0.25 h. In addition, in data set [2] (in vivo, po, 10 mg/kg), the “AUC0–24” value was found to be 48 ng·h/mL. The compound also showed a t1/2 in data set [2] (intravenous 1 mg/kg) of 0.3 h. The half-life in data set [2] (whole blood, intravenous 1 mg/kg, co-administered with ABT (100 mg/kg, 1 h pre-dose)) was 1.7 h.

As for `CC1CCc2ccccc2N1Cc1nc(-c2ccsc2)no1` (stereo not drawn) [Compound 3], the fraction unbound in “in vitro” was below 0.015. In data set [1], the CLint scaled at 2 μM came out at 1910 mL/min/kg and the “Mouse microsome (% metabolized in 30 min)” value is reported as 65%. The compound further registered a solubility in “physchem” (pH 7.4) of 5 µg/mL (≈ 16.1 µM). In data set [2] (in vivo, iv, 1 mg/kg), the “AUC,u0–24” value stood at 6 ng·h/mL, the “CL,u” value stood at 2733 mL/min/kg, the Cl was 41 mL/min/kg and the Vdss was found to be 6.3 L/kg. Also, the AUC(0-t) at 24 h in data set [2] (in vivo, iv, 1 mg/kg, AUC0–24) is 430 ng·h/mL. Besides, in data set [2] (in vivo, po, 10 mg/kg), the Cmax came out at 9 ng/mL, the “Cmax,u” value was 0.1 ng/mL and the Tmax amounted to 0.25 h. The compound further returned an AUC(0-t) at 24 h in data set [2] (in vivo, po, 10 mg/kg, AUC0–24) of 10 ng·h/mL. This compound also displayed a t1/2 in data set [2] (intravenous 1 mg/kg) of 2.9 h.

On to `Fc1ccc(-c2nnc(CN3CCc4ccccc4C3)o2)cc1` [Compound 30], for which the figures for the MIC in data set [3] and in data set [4] were 4.7 ± 1.3 µM (≈ 1.45 µg/mL) and above 20 µM, respectively. In the data set on Vero cells (ATCC CCL81), this compound yielded an IC50 above 100 µM. In data set [1], the “Mouse microsome (% metabolized in 30 min)” value is on record as 80%. Besides, the solubility in “physchem” (pH 7.4) worked out at 40 µg/mL (≈ 129 µM).

For `c1csc(-c2nnc(CN3CCOc4ccccc43)o2)c1` [Compound 32], the MIC in data set [3] was 1.8 ± 0.6 µM (≈ 0.539 µg/mL); in data set [4], above 20 µM. In the data set with Vero cells (ATCC CCL81), this compound had an IC50 above 100 µM. In addition, the “Mouse microsome (% metabolized in 30 min)” value in data set [1] is 99%. In “physchem” (pH 7.4), this compound came in with a solubility of 33 µg/mL (≈ 110 µM).

Turning to `c1ccc(-c2nnc(CN3CCOc4ccccc43)o2)cc1` [Compound 33], the MIC in data set [3] is 2.8 ± 1.7 µM (≈ 0.821 µg/mL); in data set [4] it was above 20 µM. Also, in the data set with Vero cells (ATCC CCL81), the IC50 was above 100 µM. Further, the “Mouse microsome (% metabolized in 30 min)” value in data set [1] is listed as 99%. This compound also registered a solubility in “physchem” (pH 7.4) of 28 µg/mL (≈ 95.5 µM).

For the compound `Fc1ccc(-c2nnc(CN3CCOc4ccccc43)o2)cc1` [Compound 34], the MIC was 1.8 ± 0.4 µM (≈ 0.56 µg/mL) in data set [3] and above 20 µM in data set [4]. The IC50 with Vero cells (ATCC CCL81) is above 100 µM. Moreover, in data set [1], the “Mouse microsome (% metabolized in 30 min)” value is reported as 98%. The compound further yielded a solubility in “physchem” (pH 7.4) below 2 µg/mL.

As to `FC(F)(F)c1ccc(-c2nnc(CN3CCOc4ccccc43)o2)cc1` [Compound 35], the MIC in data set [3] was 8.3 ± 1.7 µM (≈ 3 µg/mL); in data set [4], above 20 µM. Half-maximal inhibition in the data set on Vero cells (ATCC CCL81) (IC50) was put at 85 µM. For the same compound, the “Mouse microsome (% metabolized in 30 min)” value in data set [1] was found to be 95%. The compound also gave a solubility in “physchem” (pH 7.4) below 2 µg/mL.

Consider `c1csc(-c2nnc(CN3CCc4ccccc43)o2)c1` [Compound 36], for which the MIC in data set [3] is 2.1 ± 0.1 µM (≈ 0.595 µg/mL); in data set [4] it was above 20 µM. The same compound came in with an IC50 with Vero cells (ATCC CCL81) above 100 µM. Further, the “Mouse microsome (% metabolized in 30 min)” value in data set [1] worked out at 99%. In “physchem” (pH 7.4), the solubility came to 38 µg/mL (≈ 134 µM).

Take `c1ccc(-c2nnc(CN3CCc4ccccc43)o2)cc1` [Compound 37]: the values for the MIC in data set [3] and in data set [4] were 2.3 ± 0.9 µM (≈ 0.638 µg/mL) and above 20 µM, respectively. In the data set on Vero cells (ATCC CCL81), the IC50 is above 100 µM. Besides, the “Mouse microsome (% metabolized in 30 min)” value in data set [1] is recorded as 99%. This compound showed a solubility in the data set “physchem” (pH 7.4) of 21 µg/mL (≈ 75.7 µM).

In the case of `c1csc(-c2nnc(CN3Cc4ccccc4C3)o2)c1` [Compound 38], the MIC in data set [3] is 6.7 ± 1.7 µM (≈ 1.9 µg/mL); in data set [4], above 20 µM. This compound also displayed an IC50 in the data set on Vero cells (ATCC CCL81) above 100 µM. Also, the “Mouse microsome (% metabolized in 30 min)” value in data set [1] came out at 99%. In “physchem” (pH 7.4), this compound displayed a solubility of 12 µg/mL (≈ 42.3 µM).

Consider `c1ccc(-c2nnc(CN3Cc4ccccc4C3)o2)cc1` [Compound 39], for which the figures for the MIC in data set [3] and in data set [4] were 7.5 ± 3.5 µM (≈ 2.08 µg/mL) and above 20 µM, respectively. In the data set on Vero cells (ATCC CCL81), this compound displayed an IC50 above 100 µM. For the same compound, the “Mouse microsome (% metabolized in 30 min)” value in data set [1] came out at 98%. The compound further had a solubility in “physchem” (pH 7.4) of 20 µg/mL (≈ 72.1 µM).

Regarding `c1ccc(C2CCCN2Cc2nnc(-c3cccs3)o2)cc1` (stereo not drawn) [Compound 40], the MIC in data set [3] was 9.9 ± 2.1 µM (≈ 3.08 µg/mL); in data set [4], above 20 µM. The compound also had an IC50 in the data set with Vero cells (ATCC CCL81) of 50 µM. Further, in data set [1], the “Mouse microsome (% metabolized in 30 min)” value is given as 100%. The compound further returned a solubility in the data set “physchem” (pH 7.4) of 50 µg/mL (≈ 161 µM).

On to `c1ccc(-c2nnc(CN3CCCC3c3ccccc3)o2)cc1` (stereo not drawn) [Compound 41], for which the MIC in data set [3] is 8.3 ± 1.4 µM (≈ 2.53 µg/mL); in data set [4], above 20 µM. This compound yielded an IC50 in the data set with Vero cells (ATCC CCL81) above 100 µM. Also, the “Mouse microsome (% metabolized in 30 min)” value in data set [1] came out at 99%. The amount in solution in “physchem” (pH 7.4) (solubility) came to 34 µg/mL (≈ 111 µM).

What is called fraction unbound is the share of the substance not bound to proteins or other matrix. Lower therefore signals little free substance. What is called CLint scaled is the capacity of the preparation to metabolise the compound, expressed as a volume cleared per time. Low values mean greater metabolic stability, high ones faster metabolism. Broadly, the solubility is the dissolved amount per volume that the medium holds. Low values mean little dissolved substance, high ones much dissolved substance. For orientation: AUC(0-t) means the area under the concentration-time curve up to a stated or last time point. Broadly, the Cmax is the peak of the concentration-time curve. As usually defined, the Tmax is the time at which the peak concentration occurs. As a reminder, the Aqueous solubility is how much of the substance goes into solution per volume. The term half-life denotes the time needed for the level to fall by half in the phase considered. In general, IC50 refers to the concentration needed to halve the response being measured. Read a high IC50 as lower potency.
